Patent US20170291905A1, “ARGININE […] INHIBITORS AND USES THEREOF” (Epizyme, Inc., priority 2014, published 2017)
Structures can show the parent of a compound that is named as a salt.

Target: T1, full-length human PRMT1 isoform 1 (GST-tagged) (Homo sapiens, UniProt Q99873)
T1 construct: GST-tagged PRMT1 was eluted with 50 mM Tris, 2 mM glutathione, pH 7.8, dialysed in buffer A and concentrated; made in house; host or cells: High Five insect cells (baculovirus)
Assay: PRMT1 biochemical assay (3H-SAM Flashplate, histone H4 36-50 peptide)
Details: 0.5 nM PRMT1, 30 min preincubation, 20 nM peptide
Summary of the method: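 GST-PRMT1 (0.5 nM) preincubated 30 min at room temperature with compound in bicine buffer pH 7.6. Reaction then run with 200 nM 3H-SAM plus 1.5 uM SAM and 20 nM biotinylated H4 36-50 peptide, 2% DMSO. Stopped with excess cold SAM, and methylated peptide captured on streptavidin Flashplates for counting; % inhibition versus DMSO and 1 mM SAH controls, 3- or 4-parameter fit.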

T1 sequence (Q99873 with tags, fused parts or gaps): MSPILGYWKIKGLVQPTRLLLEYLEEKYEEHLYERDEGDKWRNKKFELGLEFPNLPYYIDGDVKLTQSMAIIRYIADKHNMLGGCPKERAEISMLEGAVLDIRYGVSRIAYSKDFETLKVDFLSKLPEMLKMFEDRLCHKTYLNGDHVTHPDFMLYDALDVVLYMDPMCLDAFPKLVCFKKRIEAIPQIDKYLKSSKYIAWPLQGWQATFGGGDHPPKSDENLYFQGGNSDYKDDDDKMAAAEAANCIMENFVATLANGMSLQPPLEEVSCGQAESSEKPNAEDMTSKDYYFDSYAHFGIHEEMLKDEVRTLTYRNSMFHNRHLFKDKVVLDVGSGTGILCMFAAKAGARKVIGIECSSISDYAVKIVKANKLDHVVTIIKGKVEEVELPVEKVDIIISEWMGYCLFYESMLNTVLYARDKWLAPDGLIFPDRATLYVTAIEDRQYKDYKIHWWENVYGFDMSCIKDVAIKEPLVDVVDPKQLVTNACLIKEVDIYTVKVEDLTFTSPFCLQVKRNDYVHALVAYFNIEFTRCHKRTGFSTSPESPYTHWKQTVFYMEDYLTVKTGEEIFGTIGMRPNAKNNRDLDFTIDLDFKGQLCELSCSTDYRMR

IC50: 7.33 nM
SMILES: CNCCN(C)Cc1c[nH]nc1[C@H]1CC[C@]2(CCCCO2)CC1 [compound 127, methyl([2-[methyl([3-[(6s,9r)-1-oxaspiro[5.5]undecan-9-yl]-1H-pyrazol-4-yl]methyl)amino]ethyl])amine bistrifluoroacetic acid salt]
